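Five concentrations, 48 hours, 96-well plates. The concentration for 50% growth inhibition is given as GI50. TGI: concentration producing complete growth inhibition.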
Columns and labels:
Experiment in all cases: DTP human tumour cell line panel, 48 h
786-0 renal = tested on: 786-0 renal
A549 NSCLC = tested on: A549 NSCLC
ACHN renal = tested on: ACHN renal
BT-549 breast = tested on: BT-549 breast
CAKI-1 renal = tested on: CAKI-1 renal
CCRF-CEM leukemia = tested on: CCRF-CEM leukemia
COLO 205 colon = tested on: COLO 205 colon
DU-145 prostate = tested on: DU-145 prostate
EKVX NSCLC = tested on: EKVX NSCLC
HCC-2998 colon = tested on: HCC-2998 colon
HCT-116 colon = tested on: HCT-116 colon
HCT-15 colon = tested on: HCT-15 colon
HL-60(TB) leukemia = tested on: HL-60(TB) leukemia
HOP-62 NSCLC = tested on: HOP-62 NSCLC
HOP-92 NSCLC = tested on: HOP-92 NSCLC
HT29 colon = tested on: HT29 colon
K-562 leukemia = tested on: K-562 leukemia
KM12 colon = tested on: KM12 colon
LOX IMVI melanoma = tested on: LOX IMVI melanoma
M14 melanoma = tested on: M14 melanoma
MCF7 breast = tested on: MCF7 breast
MDA-MB-231 breast = tested on: MDA-MB-231 breast
MDA-MB-435 = tested on: MDA-MB-435
MOLT-4 leukemia = tested on: MOLT-4 leukemia
NCI-H226 lung = tested on: NCI-H226 lung
NCI-H23 lung = tested on: NCI-H23 lung
NCI-H460 lung = tested on: NCI-H460 lung
NCI-H522 lung = tested on: NCI-H522 lung
NCI/ADR-RES ovarian = tested on: NCI/ADR-RES ovarian
OVCAR-3 ovarian = tested on: OVCAR-3 ovarian
OVCAR-4 ovarian = tested on: OVCAR-4 ovarian
OVCAR-8 ovarian = tested on: OVCAR-8 ovarian
PC-3 prostate = tested on: PC-3 prostate
RPMI-8226 leukemia = tested on: RPMI-8226 leukemia
RXF 393 renal = tested on: RXF 393 renal
SF-268 CNS = tested on: SF-268 CNS
SF-295 CNS = tested on: SF-295 CNS
SF-539 CNS = tested on: SF-539 CNS
SK-MEL-2 melanoma = tested on: SK-MEL-2 melanoma
SK-MEL-28 melanoma = tested on: SK-MEL-28 melanoma
SK-MEL-5 melanoma = tested on: SK-MEL-5 melanoma
SK-OV-3 ovarian = tested on: SK-OV-3 ovarian
SN12C renal = tested on: SN12C renal
SNB-19 CNS = tested on: SNB-19 CNS
SNB-75 CNS = tested on: SNB-75 CNS
SR leukemia = tested on: SR leukemia
SW-620 colon = tested on: SW-620 colon
T-47D breast = tested on: T-47D breast
TK-10 renal = tested on: TK-10 renal
U251 CNS = tested on: U251 CNS
UACC-257 melanoma = tested on: UACC-257 melanoma
UACC-62 melanoma = tested on: UACC-62 melanoma
UO-31 renal = tested on: UO-31 renal
A498 renal = tested on: A498 renal
HS 578T breast = tested on: HS 578T breast
IGROV1 ovarian = tested on: IGROV1 ovarian
MALME-3M melanoma = tested on: MALME-3M melanoma
OVCAR-5 ovarian = tested on: OVCAR-5 ovarian

Work on `O=C(OCC1OC(OC(=O)c2cc(O)c(O)c(OC(=O)c3cc(O)c(O)c(O)c3)c2)C(OC(=O)c2cc(O)c(O)c(OC(=O)c3cc(O)c(O)c(O)c3)c2)C(OC(=O)c2cc(O)c(O)c(OC(=O)c3cc(O)c(O)c(O)c3)c2)C1OC(=O)c1cc(O)c(O)c(OC(=O)c2cc(O)c(O)c(O)c2)c1)c1cc(O)c(O)c(OC(=O)c2cc(O)c(O)c(O)c2)c1` (stereo unspecified) yielded a GI50 (786-0 renal) of 46.9 µM, a TGI (786-0 renal) greater than 50 µM and a GI50 (A549 NSCLC) of 20.7 µM. It also gave a TGI (A549 NSCLC) greater than 50 µM, a GI50 (ACHN renal) of 12.3 µM and a TGI (ACHN renal) of 32.8 µM. The GI50 (BT-549 breast) was 12.1 µM, the TGI (BT-549 breast) was 35.9 µM and the GI50 (CAKI-1 renal) was 9.63 µM. For the same compound, the TGI (CAKI-1 renal) was 47.5 µM, the GI50 (CCRF-CEM leukemia) was 18.2 µM and the TGI (CCRF-CEM leukemia) was greater than 50 µM. For the same compound, the GI50 (COLO 205 colon) was 14.5 µM, the TGI (COLO 205 colon) was greater than 50 µM and the GI50 (DU-145 prostate) was 14.8 µM. It also gave a TGI (DU-145 prostate) greater than 50 µM, a GI50 (EKVX NSCLC) of 13.5 µM and a TGI (EKVX NSCLC) greater than 50 µM. For the same compound, the GI50 (HCC-2998 colon) was 11.2 µM, the TGI (HCC-2998 colon) was 46 µM and the GI50 (HCT-116 colon) was 21.9 µM. The TGI (HCT-116 colon) was greater than 50 µM, the GI50 (HCT-15 colon) was 9.73 µM and the TGI (HCT-15 colon) was greater than 50 µM. The GI50 (HL-60(TB) leukemia) was 29.4 µM, the TGI (HL-60(TB) leukemia) was greater than 50 µM and the GI50 (HOP-62 NSCLC) was greater than 50 µM. For the same compound, the TGI (HOP-62 NSCLC) was greater than 50 µM, the GI50 (HOP-92 NSCLC) was 43.9 µM and the TGI (HOP-92 NSCLC) was greater than 50 µM. It also gave a GI50 (HT29 colon) of 26.4 µM, a TGI (HT29 colon) greater than 50 µM and a GI50 (K-562 leukemia) of 25.3 µM. The TGI (K-562 leukemia) was greater than 50 µM, the GI50 (KM12 colon) was 7.23 µM and the TGI (KM12 colon) was 27.1 µM. The GI50 (LOX IMVI melanoma) was 10 µM, the TGI (LOX IMVI melanoma) was 25.4 µM and the GI50 (M14 melanoma) was 25.3 µM. The TGI (M14 melanoma) was greater than 50 µM, the GI50 (MCF7 breast) was 13.2 µM and the TGI (MCF7 breast) was 34.7 µM. For the same compound, the GI50 (MDA-MB-231 breast) was 9.85 µM, the TGI (MDA-MB-231 breast) was 36.7 µM and the GI50 (MDA-MB-435) was 10.9 µM. It also gave a TGI (MDA-MB-435) of 30.5 µM, a GI50 (MOLT-4 leukemia) of 41.3 µM and a TGI (MOLT-4 leukemia) greater than 50 µM. For the same compound, the GI50 (NCI-H226 lung) was 16.6 µM, the TGI (NCI-H226 lung) was greater than 50 µM and the GI50 (NCI-H23 lung) was 18.9 µM. For the same compound, the TGI (NCI-H23 lung) was greater than 50 µM, the GI50 (NCI-H460 lung) was 4.14 µM and the TGI (NCI-H460 lung) was 36 µM. It also gave a GI50 (NCI-H522 lung) of 8.71 µM, a TGI (NCI-H522 lung) of 29.7 µM and a GI50 (NCI/ADR-RES ovarian) of 19.2 µM. For the same compound, the TGI (NCI/ADR-RES ovarian) was greater than 50 µM, the GI50 (OVCAR-3 ovarian) was 9.99 µM and the TGI (OVCAR-3 ovarian) was 31.2 µM. For the same compound, the GI50 (OVCAR-4 ovarian) was 35.2 µM, the TGI (OVCAR-4 ovarian) was greater than 50 µM and the GI50 (OVCAR-8 ovarian) was 25.6 µM. It also gave a TGI (OVCAR-8 ovarian) greater than 50 µM, a GI50 (PC-3 prostate) of 10.1 µM and a TGI (PC-3 prostate) greater than 50 µM. It also gave a GI50 (RPMI-8226 leukemia) of 20.8 µM, a TGI (RPMI-8226 leukemia) greater than 50 µM and a GI50 (RXF 393 renal) of 30.3 µM. The TGI (RXF 393 renal) was greater than 50 µM, the GI50 (SF-268 CNS) was 7.21 µM and the TGI (SF-268 CNS) was 31.3 µM. The GI50 (SF-295 CNS) was 8.65 µM, the TGI (SF-295 CNS) was 22.9 µM and the GI50 (SF-539 CNS) was 11.7 µM. The TGI (SF-539 CNS) was 35.1 µM, the GI50 (SK-MEL-2 melanoma) was 20.6 µM and the TGI (SK-MEL-2 melanoma) was greater than 50 µM. For the same compound, the GI50 (SK-MEL-28 melanoma) was greater than 50 µM, the TGI (SK-MEL-28 melanoma) was greater than 50 µM and the GI50 (SK-MEL-5 melanoma) was 10 µM. For the same compound, the TGI (SK-MEL-5 melanoma) was 27.9 µM, the GI50 (SK-OV-3 ovarian) was 17.3 µM and the TGI (SK-OV-3 ovarian) was greater than 50 µM. It also gave a GI50 (SN12C renal) of 11.4 µM, a TGI (SN12C renal) of 29.8 µM and a GI50 (SNB-19 CNS) of 24.7 µM. For the same compound, the TGI (SNB-19 CNS) was greater than 50 µM, the GI50 (SNB-75 CNS) was 38.8 µM and the TGI (SNB-75 CNS) was greater than 50 µM. It also gave a GI50 (SR leukemia) of 21 µM, a TGI (SR leukemia) greater than 50 µM and a GI50 (SW-620 colon) of 21.6 µM. For the same compound, the TGI (SW-620 colon) was greater than 50 µM, the GI50 (T-47D breast) was 13 µM and the TGI (T-47D breast) was greater than 50 µM. It also gave a GI50 (TK-10 renal) of 7.46 µM, a TGI (TK-10 renal) of 28.2 µM and a GI50 (U251 CNS) of 14.6 µM. It also gave a TGI (U251 CNS) greater than 50 µM, a GI50 (UACC-257 melanoma) of 20.9 µM and a TGI (UACC-257 melanoma) greater than 50 µM. For the same compound, the GI50 (UACC-62 melanoma) was 14.3 µM, the TGI (UACC-62 melanoma) was greater than 50 µM and the GI50 (UO-31 renal) was 17.4 µM. The TGI (UO-31 renal) was greater than 50 µM.
`COC(=O)n1c(=O)n(-c2ccccc2)c(=O)n1C(=O)Nc1ccccc1` was tested, and the TGI (786-0 renal) was greater than 100 µM, the TGI (A498 renal) was greater than 100 µM and the TGI (A549 NSCLC) was greater than 100 µM. It also gave a TGI (ACHN renal) greater than 100 µM, a TGI (BT-549 breast) greater than 100 µM and a TGI (CAKI-1 renal) greater than 100 µM. The TGI (CCRF-CEM leukemia) was greater than 100 µM, the TGI (COLO 205 colon) was greater than 100 µM and the TGI (DU-145 prostate) was greater than 100 µM. It also gave a TGI (EKVX NSCLC) greater than 100 µM, a TGI (HCC-2998 colon) greater than 100 µM and a TGI (HCT-116 colon) greater than 100 µM. For the same compound, the TGI (HCT-15 colon) was greater than 100 µM, the TGI (HL-60(TB) leukemia) was greater than 100 µM and the TGI (HOP-62 NSCLC) was greater than 100 µM. It also gave a TGI (HOP-92 NSCLC) greater than 100 µM, a TGI (HS 578T breast) greater than 100 µM and a TGI (HT29 colon) greater than 100 µM. For the same compound, the TGI (IGROV1 ovarian) was greater than 100 µM, the TGI (K-562 leukemia) was greater than 100 µM and the TGI (KM12 colon) was greater than 100 µM. The TGI (LOX IMVI melanoma) was greater than 100 µM, the TGI (M14 melanoma) was greater than 100 µM and the TGI (MALME-3M melanoma) was greater than 100 µM. For the same compound, the TGI (MDA-MB-231 breast) was greater than 100 µM, the TGI (MDA-MB-435) was greater than 100 µM and the TGI (MOLT-4 leukemia) was greater than 100 µM. The TGI (NCI-H226 lung) was greater than 100 µM, the TGI (NCI-H23 lung) was greater than 100 µM and the TGI (NCI-H460 lung) was greater than 100 µM. It also gave a TGI (NCI-H522 lung) greater than 100 µM, a TGI (NCI/ADR-RES ovarian) greater than 100 µM and a TGI (OVCAR-3 ovarian) greater than 100 µM. It also gave a TGI (OVCAR-4 ovarian) of 87.8 µM, a TGI (OVCAR-5 ovarian) greater than 100 µM and a TGI (OVCAR-8 ovarian) greater than 100 µM. The TGI (PC-3 prostate) was greater than 100 µM, the TGI (RPMI-8226 leukemia) was greater than 100 µM and the TGI (RXF 393 renal) was greater than 100 µM. It also gave a TGI (SF-268 CNS) greater than 100 µM, a TGI (SF-295 CNS) greater than 100 µM and a TGI (SK-MEL-2 melanoma) greater than 100 µM. It also gave a TGI (SK-MEL-28 melanoma) greater than 100 µM, a TGI (SK-MEL-5 melanoma) greater than 100 µM and a TGI (SK-OV-3 ovarian) greater than 100 µM. The TGI (SNB-19 CNS) was greater than 100 µM, the TGI (SNB-75 CNS) was greater than 100 µM and the TGI (SR leukemia) was greater than 100 µM. The TGI (SW-620 colon) was greater than 100 µM, the TGI (T-47D breast) was greater than 100 µM and the TGI (TK-10 renal) was greater than 100 µM. It also gave a TGI (U251 CNS) greater than 100 µM, a TGI (UACC-257 melanoma) greater than 100 µM and a TGI (UACC-62 melanoma) greater than 100 µM. The TGI (UO-31 renal) was greater than 100 µM.

Reference: PubChem BioAssay (NCI)
